Like-named read-outs stand apart in the source and are kept apart here. *1 amine or outer side, *2 acyl side, *3 side chain or, on linkers, in order; H or OH if unused. Where a SMILES comes first, the peptide text is derived from it. [ ]: non-standard residue; d: D form. ξ: configuration not given here. ξ(4-Aminopyrrolidine-3-CO) = O=C(C1CNCC1N[*:1])[*:2]; β3hR = N=C(N)NCCC[C@H](N)CC(=O)O; β3hT = C[C@@H](O)[C@H](N)CC(=O)O; β3hE = N[C@@H](CCC(=O)O)CC(=O)O; X1 = O=C(C1CCCC1N[*:1])[*:2]
Assays:
HIV-1 DJ258 = settings: read-out: Inhibition of HIV-1 infectivity, IC50 (nM), R5 strains, DJ258; TZM-bl cells; mean ± S.E.M., three experiments
HIV-1 NL4-3 = settings: read-out: Inhibition of HIV-1 infectivity, IC50 (nM), X4 strains, NL4-3; TZM-bl cells; mean ± S.E.M., three experiments
HIV-1 CC 1/85 = settings: read-out: Inhibition of HIV-1 infectivity, IC50 (nM), R5 strains, CC 1/85; TZM-bl cells; mean ± S.E.M., three experiments
gp41-5 = gp41-5 (Human immunodeficiency virus type 1 group M subtype B, UniProt P04578, C598G/DEL582-595/DEL601-626/T627G/W596S); experiment: biochemical; type: binding, HIV; settings: for Ki: competition FP
HIV-1 HC4 = settings: read-out: Inhibition of HIV-1 infectivity, IC50 (nM), X4 strains, HC4; TZM-bl cells; mean ± S.E.M., three experiments
proteinase K [1] = target: T1, proteinase K (Parengyodontium album, UniProt P06873); experiment: in vitro; settings: for half-life at 20 μM: proteinase K solution in TBS
T1 sequence (P06873 106-384): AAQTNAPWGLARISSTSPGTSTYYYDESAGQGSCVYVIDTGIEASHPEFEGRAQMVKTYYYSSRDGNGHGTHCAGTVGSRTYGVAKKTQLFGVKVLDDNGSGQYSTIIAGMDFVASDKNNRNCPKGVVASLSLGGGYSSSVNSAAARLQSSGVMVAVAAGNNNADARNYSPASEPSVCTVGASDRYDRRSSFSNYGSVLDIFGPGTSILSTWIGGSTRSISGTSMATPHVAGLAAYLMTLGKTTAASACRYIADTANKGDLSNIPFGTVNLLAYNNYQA

proteinase K [2] = target: T1, proteinase K; settings: relative to 3
[3] = target: T2, envelope glycoprotein of the HIV-1 clone HXB2 (Human immunodeficiency virus type 1 group M subtype B, UniProt P04578); experiment: cell-cell fusion assay; type: cell-based
T2 construct: One cell line expresses HIV-1 Env (processed by cellular proteases to generate gp120+gp41); expressed in transfected cells; host or cells: CHO cells expressing HXB2 env (and Tat); U373-MAGI target cells

NHR α-peptide 1 = target: T3, NHR α-peptide 1 (Human immunodeficiency virus type 1 group M subtype B, UniProt P04578); experiment: CD thermal unfolding of 1:1 NHR + CHR peptide mixtures; type: physicochemical, HIV; settings: Table 2; CD at 222 nm, 1:1 mixture with NHR α-peptide 1, PBS, 20 μM total peptide
T3 construct: made in house; host or cells: chemical synthesis (Fmoc solid phase)
Protocol: The interactions of select α/β-peptides with the gp41 NHR domain were further investigated by circular dichroism (CD) spectroscopy. The CD spectra of 3, 4, 5, 8, 9 and were measured, both alone (see FIG. 5A) and in a 1:1 mixture with NHR α-peptide 1 (see FIGS. 3A, 3B, 3C, and 3D, respectively). See also FIGS. 5B and 5C for the superimposed spectra. […] The magnitude of the CD signatures among the well-folded mixtures (1+3, 1+5 and 1+10, FIGS. 3A, 3C, and 3D, respectively) are similar, but the ratio of intensities at 208 and 222 nm changes as a function of β-residue content (more β-residues tracks with a less intense peak at 222 nm).
The interactions of CHR α-peptide 3 and α/β-peptide analogues 4, 5, 8 and 10 with a peptide derived from the gp41 NHR domain (1) were investigated by circular dichroism (CD) spectroscopy. […] The magnitude of the CD signatures among the well-folded mixtures (1+3, 1+5, 1+8 and 1+10) are similar, but the ratio of intensities at 208 and 222 nm changes as a function of β-residue content (higher β-residue content is correlated with a less intense peak at 222 nm). This trend is consistent with previous studies on helical oligomers containing mixed α/β backbones.
Circular Dichroism Spectroscopy. Circular dichroism measurements were carried out on an Aviv 202SF Circular Dichroism Spectrophotometer. Samples of each peptide were prepared at 20 μM concentration in PBS. Solutions of 1:1 peptide mixtures were prepared by mixing equal volumes from the same 20 μM stock solutions used for individual peptide measurements. Spectra were recorded in a 1 mm cell with a step size of 1 nm and an averaging time of 5 sec. All spectra are background corrected against buffer measured in the same cell. Thermal melts were carried out in 5-degree increments with an equilibration time of 10 min between each temperature change. Thermal unfolding data were fit to a simple two state folding model Shortle, D.; Meeker, A. K.; Freire, E. Biochemistry 1988, 27, 4761-4768) using GraphPad Prism.

CC[C@H](C)[C@H](NC(=O)[C@H](C)NC(=O)C[C@H](CCCNC(=N)N)NC(=O)[C@H](CC(=O)O)NC(=O)[C@H](Cc1c[nH]c2ccccc12)NC(=O)C[C@H](C)NC(=O)[C@H](CCC(=O)O)NC(=O)[C@H](Cc1c[nH]c2ccccc12)NC(=O)[C@@H](NC(=O)C[C@@H](NC(C)=O)[C@@H](C)O)[C@@H](C)O)C(=O)N[C@@H](C)C(=O)N[C@@H](CCC(=O)O)CC(=O)N[C@@H](Cc1ccc(O)cc1)C(=O)N[C@@H](C)C(=O)N[C@@H](C)CC(=O)N[C@@H](CCCNC(=N)N)C(=O)N[C@H](C(=O)N[C@@H](CCC(=O)O)C(=O)N[C@@H](C)CC(=O)N[C@@H](CC(C)C)C(=O)N[C@H](C(=O)N[C@@H](CCCNC(=N)N)CC(=O)N[C@@H](C)C(=O)N[C@@H](C)C(=O)N[C@@H](CCC(N)=O)C(=O)N[C@@H](CCC(=O)O)CC(=O)N[C@@H](CCC(N)=O)C(=O)N[C@@H](CCC(N)=O)C(=O)N[C@@H](CCC(=O)O)CC(=O)N[C@@H](CCCCN)C(=O)N[C@@H](CC(N)=O)C(=O)N[C@@H](CCC(=O)O)C(=O)N[C@@H](C)CC(=O)N[C@@H](C)C(=O)N[C@@H](CC(C)C)C(=O)N[C@@H](CCCNC(=N)N)CC(=O)N[C@@H](CCC(=O)O)C(=O)N[C@@H](CC(C)C)C(N)=O)[C@@H](C)CC)[C@@H](C)CC [compound 4]
IC50 (HIV-1 DJ258): 960 ± 200 nM
IC50 (HIV-1 NL4-3): 700 ± 60 nM
IC50 (HIV-1 CC 1/85): 1300 ± 100 nM
Ki (gp41-5; Table 2, read-out: gp41-5 Ki): 3800 nM
IC50 (HIV-1 HC4): 590 ± 100 nM
half-life at 20 μM (proteinase K [1]; Tritirachium album (source organism of proteinase K)): 14 min
half-life at 20 μM (proteinase K [1]): 14 min
fold improvement in stability to proteinase K relative to α-peptide 3 (proteinase K [2]): 20 fold
IC50 [3]: 390 ± 40 nM

CC[C@H](C)[C@H](NC(=O)[C@H](C)NC(=O)C[C@H](CCCNC(=N)N)NC(=O)[C@H](CC(=O)O)NC(=O)[C@H](Cc1c[nH]c2ccccc12)NC(=O)C[C@H](CCC(=O)O)NC(=O)[C@H](CCC(=O)O)NC(=O)[C@H](Cc1c[nH]c2ccccc12)NC(=O)[C@@H](NC(=O)C[C@H](CCCNC(=N)N)NC(C)=O)[C@@H](C)O)C(=O)N[C@@H](C)C(=O)N[C@@H](CCC(=O)O)CC(=O)N[C@@H](Cc1ccc(O)cc1)C(=O)N[C@@H](C)C(=O)N[C@@H](CCCNC(=N)N)CC(=O)N[C@@H](CCCNC(=N)N)C(=O)N[C@H](C(=O)N[C@@H](CCC(=O)O)C(=O)N[C@@H](CCC(=O)O)CC(=O)N[C@@H](CC(C)C)C(=O)N[C@H](C(=O)N[C@@H](CCCNC(=N)N)CC(=O)N[C@@H](C)C(=O)N[C@@H](C)C(=O)N[C@@H](CCC(N)=O)C(=O)N[C@@H](CCC(=O)O)CC(=O)N[C@@H](CCC(N)=O)C(=O)N[C@@H](CCC(N)=O)C(=O)N[C@@H](CCCNC(=N)N)CC(=O)N[C@@H](CCCCN)C(=O)N[C@@H](CC(N)=O)C(=O)N[C@@H](CCC(=O)O)C(=O)N[C@@H](CCC(=O)O)CC(=O)N[C@@H](C)C(=O)N[C@@H](CC(C)C)C(=O)N[C@@H](CCCNC(=N)N)CC(=O)N[C@@H](CCC(=O)O)C(=O)N[C@@H](CC(C)C)C(N)=O)[C@@H](C)CC)[C@@H](C)CC [compound 17] (Ac-[β3hR]TWE[β3hE]WD[β3hR]AIA[β3hE]YA[β3hR]RIE[β3hE]LI[β3hR]AAQ[β3hE]QQ[β3hR]KNE[β3hE]AL[β3hR]EL-NH2)
Ki (gp41-5; read-out: Ki for gp41-5): 11 nM

CC[C@H](C)[C@H](NC(=O)[C@H](C)NC(=O)[C@H](CCCNC(=N)N)NC(=O)[C@H](CC(=O)O)NC(=O)[C@H](Cc1c[nH]c2ccccc12)NC(=O)[C@H](C)NC(=O)[C@H](CCC(=O)O)NC(=O)[C@H](Cc1c[nH]c2ccccc12)NC(=O)[C@@H](NC(=O)[C@@H](NC(C)=O)[C@@H](C)O)[C@@H](C)O)C(=O)N[C@@H](C)C(=O)N[C@@H](CCC(=O)O)C(=O)N[C@@H](Cc1ccc(O)cc1)C(=O)N[C@@H](C)C(=O)N[C@@H](C)CC(=O)N[C@@H](CCCNC(=N)N)C(=O)N[C@H](C(=O)N[C@@H](CCC(=O)O)C(=O)N[C@@H](C)CC(=O)N[C@@H](CC(C)C)C(=O)N[C@H](C(=O)N[C@@H](CCCNC(=N)N)CC(=O)N[C@@H](C)C(=O)N[C@@H](C)C(=O)N[C@@H](CCC(N)=O)C(=O)N[C@@H](CCC(=O)O)CC(=O)N[C@@H](CCC(N)=O)C(=O)N[C@@H](CCC(N)=O)C(=O)N[C@@H](CCC(=O)O)CC(=O)N[C@@H](CCCCN)C(=O)N[C@@H](CC(N)=O)C(=O)N[C@@H](CCC(=O)O)C(=O)N[C@@H](C)CC(=O)N[C@@H](C)C(=O)N[C@@H](CC(C)C)C(=O)N[C@@H](CCCNC(=N)N)CC(=O)N[C@@H](CCC(=O)O)C(=O)N[C@@H](CC(C)C)C(N)=O)[C@@H](C)CC)[C@@H](C)CC [compound 6]
Ki (gp41-5; Table 2, read-out: gp41-5 Ki): 15 nM

CC[C@H](C)[C@H](NC(=O)[C@H](C)NC(=O)C1CNCC1NC(=O)[C@H](CC(=O)O)NC(=O)[C@H](Cc1c[nH]c2ccccc12)NC(=O)C1CCCC1NC(=O)[C@H](CCC(=O)O)NC(=O)[C@H](Cc1c[nH]c2ccccc12)NC(=O)[C@@H](NC(=O)C[C@@H](NC(C)=O)[C@@H](C)O)[C@@H](C)O)C(=O)N[C@@H](C)C(=O)N[C@@H](CCC(=O)O)CC(=O)N[C@@H](Cc1ccc(O)cc1)C(=O)N[C@@H](C)C(=O)NC1CCCC1C(=O)N[C@@H](CCCNC(=N)N)C(=O)N[C@H](C(=O)N[C@@H](CCC(=O)O)C(=O)NC1CCCC1C(=O)N[C@@H](CC(C)C)C(=O)N[C@H](C(=O)NC1CNCC1C(=O)N[C@@H](C)C(=O)N[C@@H](C)C(=O)N[C@@H](CCC(N)=O)C(=O)N[C@@H](CCC(=O)O)CC(=O)N[C@@H](CCC(N)=O)C(=O)N[C@@H](CCC(N)=O)C(=O)N[C@@H](CCC(=O)O)CC(=O)N[C@@H](CCCCN)C(=O)N[C@@H](CC(N)=O)C(=O)N[C@@H](CCC(=O)O)C(=O)NC1CCCC1C(=O)N[C@@H](C)C(=O)N[C@@H](CC(C)C)C(=O)NC1CNCC1C(=O)N[C@@H](CCC(=O)O)C(=O)N[C@@H](CC(C)C)C(N)=O)[C@@H](C)CC)[C@@H](C)CC (stereo partly drawn) [compound 10, Ac-TTWEXWDZAIAEYAXRIEXLIZAAQEQQEKNEXALZEL-NH2] (Ac-[β3hT]TWE[X1]WD[ξ(4-Aminopyrrolidine-3-CO)]AIA[β3hE]YA[X1]RIE[X1]LI[ξ(4-Aminopyrrolidine-3-CO)]AAQ[β3hE]QQ[β3hE]KNE[X1]AL[ξ(4-Aminopyrrolidine-3-CO)]EL-NH2)
fold difference in affinity for gp41-5 relative to 5 (gp41-5): > 45 fold
fold higher affinity for gp41-5 relative to 4 (gp41-5; relative to 4): ~380 fold
fold improvement of Ki relative to 9 (gp41-5; relative to 9): ~10 fold
half-life (proteinase K [1]): 200 min
NHR + CHR Tm (° C.) (NHR α-peptide 1): 55 °C
fold improvement in stability to proteinase K relative to α-peptide 3 (proteinase K [2]): 280 fold
